Data as given in article PMC10454678, “Synthesis of hydroxy benzoin/benzil analogs and investigation of their antioxidant, antimicrobial, enzyme inhibition, and cytotoxic activities” (Turkish Journal of Chemistry, 2021).
Values after ≈ are worked out from the molar mass of the structure shown. Read-outs that look alike come from different tables or passages of the source.

Key:
acetylcholinesterase = acetylcholinesterase (Homo sapiens, UniProt P22303); assay: biochemical; settings: Tris-HCl pH 8.0, 25 °C, 405 nm; read-out: AChE IC50 (converted)
butyrylcholinesterase = butyrylcholinesterase (Homo sapiens, UniProt P06276); assay: biochemical; settings: Tris-HCl pH 8.0, 25 °C, 405 nm; read-out: BChE IC50 (converted)
α-glucosidase = assay: α-Glucosidase inhibition; format: biochemical; settings: PNPG, pH 6.8, 37 °C, 400 nm
Procedure: It was incubated at 37 °C for 15 min. Similarly, an enzyme-free blank was prepared. The reaction was stopped when sodium carbonate (50 μL, 0.2 M) was added.

[1] = DPPH radical scavenging activity; settings: 0.1 mM DPPH, 50 min dark, 517 nm
[2] = Copper ions reducing activity (CUPRAC); settings: Trolox equivalents; 30 min dark, room temperature, 450 nm
[3] = Ferric reducing antioxidant power (FRAP) assay; settings: Trolox equivalents; compounds 2 mg/mL, 30 °C 30 min, 595 nm
[4] = tested on: Candida albicans ATCC60193; assay: MIC, microdilution, C. albicans; format: cell-based; settings: Candida albicans, ATCC60193; fungus; YEPD broth, 48 h, 36 °C; read-out: MIC Ca
[5] = tested on: Escherichia coli ATCC 25922; assay: MIC, microdilution, E. coli; format: cell-based; settings: Escherichia coli
[6] = tested on: Yersinia pseudotuberculosis ATCC911; assay: microbe, parasite or virus in culture; format: cell-based; settings: Yersinia pseudotuberculosis, ATCC911, read-out: MIC Yp
[7] = tested on: Pseudomonas aeruginosa ATCC27853; assay: MIC, microdilution, P. aeruginosa; format: cell-based; settings: Pseudomonas aeruginosa, ATCC27853; Gram (-); Mueller-Hinton broth, 18-24 h, 36 °C; read-out: MIC Pa
[8] = tested on: Staphylococcus aureus ATCC25923; assay: MIC, microdilution, S. aureus; format: cell-based; settings: Staphylococcus aureus
[9] = tested on: Enterococcus faecalis ATCC29212; assay: MIC, microdilution, E. faecalis; format: cell-based; settings: Enterococcus faecalis, ATCC29212; Gram (+); Mueller-Hinton broth, 18-24 h, 36 °C; read-out: MIC Ef
Bacillus cereus Roma709 = assay: MIC, microdilution, B. cereus; format: cell-based; settings: Bacillus cereus
[10] = tested on: Mycobacterium smegmatis ATCC607; assay: MIC, microdilution, M. smegmatis; format: cell-based; settings: for MIC: Mycolicibacterium smegmatis, ATCC607, 72 h
[11] = ATCC25922, Gram (-), Mueller-Hinton broth, 18-24 h, 36 °C, read-out: MIC Ec
[12] = ATCC25923, Gram (+), Mueller-Hinton broth, 18-24 h, 36 °C, read-out: MIC Sa
[13] = Tub., BHI broth, 36 °C, read-out: MIC Ms

acetylcholinesterase, sequence (P22303 32-614, species assumed): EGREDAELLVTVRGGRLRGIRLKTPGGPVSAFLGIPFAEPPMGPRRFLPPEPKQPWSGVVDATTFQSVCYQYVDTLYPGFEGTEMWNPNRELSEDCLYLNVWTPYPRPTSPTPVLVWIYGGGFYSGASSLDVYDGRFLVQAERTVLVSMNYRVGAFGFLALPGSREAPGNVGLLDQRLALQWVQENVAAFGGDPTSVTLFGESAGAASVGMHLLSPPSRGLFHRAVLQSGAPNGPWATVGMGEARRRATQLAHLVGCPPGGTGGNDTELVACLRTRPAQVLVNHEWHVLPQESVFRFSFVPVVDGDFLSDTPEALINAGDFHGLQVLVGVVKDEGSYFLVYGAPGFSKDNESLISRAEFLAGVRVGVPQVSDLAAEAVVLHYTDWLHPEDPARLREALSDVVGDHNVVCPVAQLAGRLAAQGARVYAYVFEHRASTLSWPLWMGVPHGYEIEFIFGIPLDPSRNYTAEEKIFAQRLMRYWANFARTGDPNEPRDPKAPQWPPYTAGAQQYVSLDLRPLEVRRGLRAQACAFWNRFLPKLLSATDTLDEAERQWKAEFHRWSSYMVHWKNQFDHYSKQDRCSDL
butyrylcholinesterase, sequence (P06276 29-602): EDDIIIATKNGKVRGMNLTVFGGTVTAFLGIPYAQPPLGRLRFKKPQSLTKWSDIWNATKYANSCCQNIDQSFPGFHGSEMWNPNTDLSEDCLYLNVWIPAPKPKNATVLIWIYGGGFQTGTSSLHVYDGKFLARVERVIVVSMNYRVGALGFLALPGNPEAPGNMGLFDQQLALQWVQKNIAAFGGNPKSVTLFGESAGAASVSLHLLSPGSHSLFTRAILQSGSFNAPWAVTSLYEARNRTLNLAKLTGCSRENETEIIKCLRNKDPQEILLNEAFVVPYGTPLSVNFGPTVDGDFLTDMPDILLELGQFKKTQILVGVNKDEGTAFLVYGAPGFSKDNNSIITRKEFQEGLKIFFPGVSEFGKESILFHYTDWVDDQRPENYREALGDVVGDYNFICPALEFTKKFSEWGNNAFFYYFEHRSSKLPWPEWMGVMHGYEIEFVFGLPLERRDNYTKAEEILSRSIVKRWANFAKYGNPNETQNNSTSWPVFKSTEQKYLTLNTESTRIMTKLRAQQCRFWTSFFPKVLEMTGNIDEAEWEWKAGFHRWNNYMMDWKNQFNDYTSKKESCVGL

Row | SMILES | IC50 (acetylcholinesterase) [µM] | IC50 (butyrylcholinesterase) [µM] | α-Glucosidase IC50 (α-glucosidase) [mg/L] | DPPH radical scavenging capacity (SC50) [1] [mg/mL] | CUPRAC, copper reducing antioxidant power [2] [μg/mL trolox/gram DW] | FRAP, the iron reducing antioxidant power [3] [μg/mL trolox/gram DW] | MIC [4] [mg/L] | MIC [5, 11] [mg/L] | MIC [6] [mg/L] | MIC [7] [mg/L] | MIC [8, 12] [mg/L] | MIC [9] [mg/L] | MIC (Bacillus cereus Roma709; ROMA709, read-out: MIC Bc) [mg/L] | MIC [10, 13] [mg/L] | MIC (Bacillus cereus Roma709; ROMA709, Gram (+), Mueller-Hinton broth, 18-24 h, 36 °C, read-out: MIC Bc) [mg/L] | MIC Ms ([10]; Tub., BHI broth, 72 h, 36 °C) [mg/L] | MIC ([10]; read-out: MIC Ms, Tub., BHI broth, 36 °C) [mg/L] | MIC ([5]; ATCC25922, read-out: MIC Ec) [mg/L] | MIC ([8]; ATCC25923, read-out: MIC Sa) [mg/L]
1 | O=C(c1cc(OC2O[C@H](CO)[C@@H](O)[C@H](O)[C@H]2O)cc(OC2O[C@H](CO)[C@@H](O)[C@H](O)[C@H]2O)c1)C(O)c1ccccc1 (stereo partly drawn) [Compound 17, 2-Hydroxy-1-(3,5-Di-O-β -D-glucopyranosylphenyl)-2-phenylethanone] | > 1760 | > 1760 | 193.40 | 8.22 ± 1.08 | 287.40 ± 9.81 | 2647.92 ± 31.92 | – | – | – | – | – | – | – | – | – | – | – | – | –
2 | O=C(C(=O)c1cc(OC2O[C@H](CO)[C@@H](O)[C@H](O)[C@H]2O)cc(OC2O[C@H](CO)[C@@H](O)[C@H](O)[C@H]2O)c1)c1ccccc1 (stereo partly drawn) [Compound 23, 1-(3,5-Di-O-β -D-glucopyranosylphenyl)-2-phenylethane-1,2-dione] | 124 | > 1770 | >1000 | 17.74 ± 0.35 | 273.67 ± 27.23 | 2267.50 ± 24.14 | – | – | – | – | – | – | – | – | – | – | – | – | –
3 | O=C(c1cccc(OC2O[C@H](CO)[C@@H](O)[C@H](O)[C@H]2O)c1)C(O)c1ccccc1 (stereo partly drawn) [Compound 15, 2-Hydroxy-1-(3-O-β -D-glucopyranosylphenyl)-2-phenylethanone] | 30.7 | > 2560 | >1000 | – | 141.74 ±28.35 | 2311.04 ± 31.21 | 25 (≈ 64 µM) | – | – | – | – | – | – | – | – | – | – | – | –
4 | CC1(C)S[C@@H]2[C@H](NC(=O)[C@H](N)c3ccccc3)C(=O)N2[C@H]1C(=O)O [Amp., Ampicillin, reference compound] | – | – | – | – | – | – | – | 10 (≈ 28.6 µM) | 18 (≈ 51.5 µM) | > 128 | 35 (≈ 100 µM) | 10 (≈ 28.6 µM) | – | – | – | – | – | – | –
5 | O=C(c1cccc(O)c1)C(O)c1ccccc1 (stereo not drawn) [Compound 1, 2-Hydroxy-1-(3-hydroxyphenyl)-2-phenylethanone] | > 4380 | 1890 | 58.16 | 15.21 ± 2.1 | 738.33 ± 12.5 | 1238 ± 34.7 | 330 (≈ 1450 µM) | 330 (≈ 1450 µM) | 1320 (≈ 5780 µM) | – | – | – | 1320 (≈ 5780 µM) | 165 (≈ 723 µM) | – | – | – | – | –
6 | O=C(C(=O)c1cc(O)cc(O)c1)c1ccccc1 [Compound 10, 1-(3,5-Dihydroxyphenyl)-2-phenylethane-1,2-dione] | 161 | > 4130 | 100.08 | 52.10 ± 0.4 | 455.00 ± 10.1 | 1830 ± 44.8 | 17 (≈ 70.2 µM) | 17 (≈ 70.2 µM) | 65 (≈ 268 µM) | 32 (≈ 132 µM) | 65 (≈ 268 µM) | – | – | 9 to 18 (≈ 37.2 to 74.3 µM) | 17 (≈ 70.2 µM) | 17 (≈ 70.2 µM) | – | – | –
7 | OC(Cn1cncn1)(Cn1cncn1)c1ccc(F)cc1F [Flu., Fluconazole, reference compound] | – | – | – | – | – | – | < 8 | – | – | – | – | – | – | – | – | – | – | – | –
8 | O=C(C(=O)c1cccc(OC2O[C@H](CO)[C@@H](O)[C@H](O)[C@H]2O)c1)c1cccc(O)c1 (stereo partly drawn) [Compound 24, 1-(3-O-β -D-Glucopyranosylphenyl)-2-(3-hydroxyphenyl)ethane-1,2-dione] | 697 | 526 | 58.90 | 25.40 ± 0.19 | 251.46 ± 43.08 | 2401.25 ± 56.34 | – | – | – | – | – | – | – | – | – | – | 15 (≈ 37.1 µM) | – | –
9 | Cc1cc(C(C)(C)C)c(O)c(C(C)(C)C)c1 [BHT, di-t-butylhydroxytoluene, reference compound] | – | – | – | 6.47 ± 0.12 | – | – | – | – | – | – | – | – | – | – | – | – | – | – | –
10 | O=C(C(=O)c1cc(O)cc(O)c1)c1cc(O)cc(O)c1 [Compound 14, 1,2-Bis(3,5-dihydroxyphenyl)ethane-1,2-dione] | 257 | > 3650 | 87.10 | 7.38 ± 1.0 | 133.33 ± 10.9 | 1974 ± 76.9 | 51 (≈ 186 µM) | – | 102 (≈ 372 µM) | 51 (≈ 186 µM) | – | 51 (≈ 186 µM) | 102 (≈ 372 µM) | 51 (≈ 186 µM) | – | – | – | 102 (≈ 372 µM) | –
11 | O=C(C(=O)c1ccc(O)cc1)c1ccccc1 [Compound 9, 1-(4-Hydroxyphenyl)-2-phenylethane-1,2-dione] | 637 | > 4420 | 47.78 | 8.64 ± 0.5 | 48.33 ± 5.5 | 1946 ± 83.7 | 108 (≈ 477 µM) | – | 217 (≈ 959 µM) | 108 (≈ 477 µM) | – | 108 (≈ 477 µM) | 108 (≈ 477 µM) | 108 (≈ 477 µM) | – | – | – | 108 (≈ 477 µM) | 108 (≈ 477 µM)
12 | O=C(c1ccc(OC2O[C@H](CO)[C@@H](O)[C@H](O)[C@H]2O)cc1)C(O)c1ccccc1 (stereo partly drawn) [Compound 16, 2-Hydroxy-1-(4-O-β -D-glucopyranosylphenyl)-2-phenylethanone] | 399 | 484 | >1000 | 44.75 ± 3.04 | 73.54 ± 17.36 | 1956.25 ± 48.13 | – | – | – | – | – | – | – | – | – | – | – | – | –
13 | O=C(c1ccc(OC2O[C@H](CO)[C@@H](O)[C@H](O)[C@H]2O)cc1)C(O)c1cccc(OC2O[C@H](CO)[C@@H](O)[C@H](O)[C@H]2O)c1 (stereo partly drawn) [Compound 19, 2-Hydroxy-1-(4-O-β -D-glucopyranosylphenyl)-2-(3-O-β -D-glucopyranosyl-phenyl)ethanone] | 18.5 | > 1760 | 124.94 | 8.86 ± 0.37 | 421.74 ± 24.39 | 2612.50 ± 37.04 | – | – | – | – | – | – | – | – | – | – | – | – | –
14 | [H]/N=C(/N)N[C@H]1[C@H](O)[C@@H](O)[C@H](O[C@@H]2O[C@@H](C)[C@](O)(C=O)[C@H]2O[C@@H]2O[C@@H](CO)[C@H](O)[C@@H](O)[C@@H]2NC)[C@@H](N/C(N)=N\[H])[C@@H]1O [Strep., Streptomycin, reference compound] | – | – | – | – | – | – | – | – | – | – | – | – | – | 4 (≈ 6.88 µM) | – | – | – | – | –
15 | O=C(c1cc(OC2O[C@H](CO)[C@@H](O)[C@H](O)[C@H]2O)cc(OC2O[C@H](CO)[C@@H](O)[C@H](O)[C@H]2O)c1)C(O)c1cccc(OC2O[C@H](CO)[C@@H](O)[C@H](O)[C@H]2O)c1 (stereo partly drawn) [Compound 20, 2-Hydroxy-1-(3,5-di-O-β -D-glucopyranosylphenyl)-2-(3-O-β -D-glucopyranosylphenyl)ethanone] | > 1340 | 254 | 48.25 | 7.78 ± 0.12 | 775.58±12.34 | 2918.75±36.14 | – | – | – | – | – | – | – | – | – | – | – | – | –
16 | O=C(c1cc(O)cc(O)c1)C(O)c1cc(O)cc(O)c1 (stereo not drawn) [Compound 7, 1,2-Bis(3,5-dihydroxyphenyl)-2-hydroxyethanone] | 443 | > 3620 | >1000 | 10.85 ± 0.7 | 95.00 ± 2.4 | 1715 ± 96.8 | 283 (≈ 1020 µM) | – | 1140 (≈ 4110 µM) | 283 (≈ 1020 µM) | – | 141 (≈ 510 µM) | 141 (≈ 510 µM) | 70 (≈ 253 µM) | – | – | – | 141 (≈ 510 µM) | 283 (≈ 1020 µM)
